For two compounds, pest or weed control results are on record in patent US9681664B2, “Macrocyclic picolinamides as fungicides” (Dow Agrosciences LLC, priority 2012, dated 2017).

Common to all, as to assay type: in vivo
Test [1] has as its system Leptosphaeria nodorum. The test can be described thus: Wheat glume blotch (LEPTNO) disease control. As to conditions: Parastagonospora nodorum, 24 h, High volume application, 1 Day Protectant, read-out: LEPTNO 1 DP disease control. The procedure: (§1) Technical grades of materials were dissolved in acetone, which were then mixed with nine volumes of water containing 110 ppm Triton X-100. The fungicide solutions were applied onto wheat seedlings using an automated booth sprayer to run-off. All sprayed plants were allowed to air dry prior to further handling. All fungicides were evaluated using the aforementioned method for their activity vs. all target diseases. Wheat leaf blotch and brown rust activity were also evaluated using track spray applications, in which case the fungicides were formulated as EC formulations, containing 0.1% Trycol 5941 in the spray solutions. Wheat plants (variety Yuma) were grown from seed in a greenhouse in 50% mineral soil/50% soil-less Metro mix until the first leaf was fully emerged, with 7-10 seedlings per pot. These plants were inoculated with an aqueous spore suspension of Leptosphaeria nodorum 24 hr after fungicide treatments. After inoculation the plants were kept in 100% relative humidity (one day in a dark dew chamber followed by two days in a lighted dew chamber at 20° C.) to permit spores to germinate and infect the leaf. The plants were then transferred to a greenhouse set at 20° C. for disease to develop. Fungicide formulation, application and disease assessment followed the procedures as described in the Example A.

For test [2], the system named is Cercospora beticola. The test can be described thus: Leaf spot of sugar beets (CERCBE) disease control. The settings on record: 24 h, 1 Day Protectant, high volume, read-out: Disease Control CERCBE 1 DP. The procedure:
Technical grades of materials were dissolved in acetone, which were then mixed with nine volumes of water containing 110 ppm Triton X-100. The fungicide solutions were applied onto wheat seedlings using an automated booth sprayer to run-off. All sprayed plants were allowed to air dry prior to further handling. All fungicides were evaluated using the aforementioned method for their activity vs. all target diseases. Wheat leaf blotch and brown rust activity were also evaluated using track spray applications, in which case the fungicides were formulated as EC formulations, containing 0.1% Trycol 5941 in the spray solutions. Sugar beet plants (variety HH88) were grown in soil-less Metro mix and trimmed regularly to maintain a uniform plant size prior to test. Plants were inoculated with a spore suspension 24 hr after fungicide treatments. Inoculated plants were kept in a dew chamber at 22° C. for 48 hr then incubated in a greenhouse set at 24° C. under a clear plastic hood with bottom ventilation until disease symptoms were fully expressed. Fungicide formulation, application and disease assessment on the sprayed leaves followed the procedures as described in the Example A.

Test [3] deals with Blumeria graminis f. sp. tritici; Synonym: Erysiphe graminis f. sp. tritici. Briefly: Wheat powdery mildew (ERYSGT) disease control. As to conditions: 24 h, 1 Day Protectant, high volume, read-out: Disease Control ERYSGT 1 DP. The procedure:
as §1, with “inoculated by dusting” for “inoculated”, “infected stock plants” for “an aqueous spore suspension of Leptosphaeria nodorum”, “in” for “in 100% relative humidity (one day in a dark dew chamber followed by two days in a lighted dew chamber at 20° C.) to permit spores to germinate and infect the leaf. The plants were then transferred to”, “assessment on the sprayed leaves” for “assessment”

Test [4] has as its system Rhyncosporium secalis. Briefly: Barley scald (RHYNSE) disease control. As to conditions: 24 h, High volume application, 1 Day Protectant, read-out: RHYNSE 1 DP disease control. The procedure: Technical grades of materials were dissolved in acetone, which were then mixed with nine volumes of water containing 110 ppm Triton X-100. The fungicide solutions were applied onto wheat seedlings using an automated booth sprayer to run-off. All sprayed plants were allowed to air dry prior to further handling. All fungicides were evaluated using the aforementioned method for their activity vs. all target diseases. Wheat leaf blotch and brown rust activity were also evaluated using track spray applications, in which case the fungicides were formulated as EC formulations, containing 0.1% Trycol 5941 in the spray solutions. Barley seedlings (variety Harrington) were propagated in soil-less Metro mix, with each pot having 8 to 12 plants, and used in the test when first leaf was fully emerged. Test plants were inoculated by an aqueous spore suspension of Rhyncosporium secalis 24 hr after fungicide treatments. After inoculation the plants were kept in a dew room at 20° C. with 100% relative humidity for 48 hr. The plants were then transferred to a greenhouse set at 20° C. for disease to develop. Fungicide formulation, application and disease assessment on the sprayed leaves followed the procedures as described in the Example A.

Test [5] relates to Alternaria solani. The test can be described thus: Tomato early blight (ALTESO) disease control. As to conditions: 24 h, 1 Day Protectant, high volume, read-out: Disease Control ALTESO 1 DP. The procedure:
Technical grades of materials were dissolved in acetone, which were then mixed with nine volumes of water containing 110 ppm Triton X-100. The fungicide solutions were applied onto wheat seedlings using an automated booth sprayer to run-off. All sprayed plants were allowed to air dry prior to further handling. All fungicides were evaluated using the aforementioned method for their activity vs. all target diseases. Wheat leaf blotch and brown rust activity were also evaluated using track spray applications, in which case the fungicides were formulated as EC formulations, containing 0.1% Trycol 5941 in the spray solutions. Tomato plants (variety Outdoor girl) were propagated in soil-less Metro mix, with each pot having one plant, and used when 12 to 14 days old. Test plants were inoculated with an aqueous spore suspension of Alternaria solani 24 hr after fungicide treatments. After inoculation the plants were kept in 100% relative humidity (one day in a dark dew chamber followed by two to three days in a lighted dew chamber at 20° C.) to permit spores to germinate and infect the leaf. The plants were then transferred to a growth room at 22° C. for disease to develop. Fungicide formulation, application and disease assessment on the sprayed leaves followed the procedures as described in the Example A.

Test [6] relates to Glomerella lagenarium; Anamorph: Colletotrichum lagenarium. Briefly: Cucumber anthracnose (COLLLA) disease control. The settings on record: Colletotrichum orbiculare, 24 h, 1 Day Protectant, high volume, read-out: Disease Control COLLLA 1 DP. An outline of the steps: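 Compounds were dissolved in acetone, diluted with nine volumes of water containing 110 ppm Triton X-100 and sprayed to run-off on 12–14-day-old Bush Pickle cucumber seedlings. Plants were spore-inoculated 24 hr later and held 48 hr at 22 °C and 100% RH, then in a 22 °C growth room. Disease on sprayed leaves was then assessed.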

In the case of `COc1ccnc(C(=O)N[C@H]2CCC[C@H](Oc3ccccc3)[C@@H](OCC(C)C)[C@H](C)OC2=O)c1OCOC(C)=O` [F28], the pest or weed control at 100 ppm lay within 0 to 80% in test [1]; 80 to 100% in test [2]; 0 to 80% in test [3]; 80 to 100% in test [4]; 0 to 80% in test [5]; 80 to 100% in test [6].
As for `COc1ccnc(C(=O)N[C@H]2CCC[C@H](OCC(C)C)[C@@H](OC3CCCC3)[C@H](C)OC2=O)c1OCOC(C)=O` [F39], the pest or weed control at 100 ppm in test [1], in test [2], in test [3], in test [4], in test [5] and in test [6] was 80 to 100% in each case.
